In patent US7842690B2, “Cyclic hydroxylamine as psychoactive compounds” (BTG International Limited, priority 2003, dated 2010):

What was measured:
Type in all cases: in vivo
BKW male albino mice = experiment: Black and white box test (Example 10); conditions: 0.1 mg/kg IP 40 min before test, 5-min period
rats [1] = experiment: Elevated plus maze (X-maze) in rats; conditions: 0.125 mg/kg IP 40 min before test, 5-min period
Source text: The X-maze is constructed from Perspex® and comprises four arms (2 open, 2 closed), each 50 cm long by 9.5 wide and 40 high (closed, arms only) connected by a centre square (9.5×9.5). The open arm has a small lip (3 mm) to assist in the retention of the rat on the arm. The apparatus was housed in a room under subdued lighting conditions.
This model is based on the observation of spontaneous activity of rodents placed in an aversive environment produced by height and often spaces. […] Anxiolytic drugs increase the exploratory activity and the number of entries into the open arms. Rats were allowed at least 1 hour to acclimatise to the environment before testing commenced. Drug treatments were given IP in a pseudo-random, blind design, 40 minutes before behavioural testing, as appropriate. Rats were placed onto the centre square of the X-maze facing a specified open arm, and its behaviour was recorded by remote video over a 5 minute experimental period. The behavioural parameters were subsequently assessed by technicians reviewing the videotape and included: entries into each arm type, time spent on each arm type, rearing, stretch attend postures and head dips.

rats [2] = experiment: Escape deficit test (learned helplessness), antidepressant activity; conditions: rats treated IP for 15 days, unavoidable stress 16 h and escape test 24 h after last dosing; out of 30 trials; dose not given
Description: The “Escape deficit” test that derives from the classic paradigm of “learned helplessness” was used, as described by Meloni et al. in Pharmacol. Biochem. Behav. 46, 423-6 (1993) and Gambarana et al. in Behav. Pharmacol. 6, 66-73 (1995) and Neuropsychopharmacol. 21, 247-57 (1999). Exposure to an unavoidable stress induces […], which, after 24 hours, makes the rats unable to escape from a nociceptive stimulus. Rats exposed to unavoidable stress make 0-5 escapes out of 30 trials, while naïve rats realise 26-30 escapes. Classical anti-depressives prevent the occurrence of the escape deficit after chronic treatment (15 days).
Rats were treated intra-peritoneally (IP) for 15 days, and then submitted to the unavoidable stress (16 hours after the last dosing) prior to being subjected to the escape test (24 hours after the last dosing).

[3] = system: Male rats of the Wistar strain; experiment: Despair test (forced swim); conditions: 5-min test, mean ± S.E.M.
[4] = system: Male rats of the Wistar strain; experiment: Reserpine-induced changes in open field behaviour; conditions: reserpine 0.1 mg/kg SC daily for 14 days, 5-min test, mean ± S.E.M.
Description: Rats treated with the compound of Example 1 were compared to either rats treated with the classical antidepressant, clomipramine or controls in the despair test (forced swim). The same groups were also tested for the reserpine-induced changes in open field behaviour.
Male rats of the Wistar strain (purchased from Charles River, Italy) weighing 220-240 g were used throughout all experiments. For at least 1 week prior to the experiment, the rats were housed four to a cage at a constant temperature of 21° C., and under a 12-h light/dark cycle (lights on between 08:00 and 20:00), with food and water available ad libitum.
An acute IP injection of clomipramine hydrochloride (50 mg/kg) or of the compound of Example 1 (0.2 and 0.5 mg/kg) or physiological saline was made in animals subjected to the reserpine-induced changes in the open field test (the injection was made together with the last reserpine administration, e.g. 1 h prior to the open field test).
All animals were gently manipulated by experienced facilities' keepers avoiding any environmental or physical stress. Rats subjected to drugs or physiological saline administration received an injection of a 1-mL standard volume of solution with a 23-gauge stainless steel needle of 31 mm length (for […]) or 21 mm length (for SC injections). The animals were randomly assigned to any treatment group and were used only once in the behavioural experiments.
Reserpine-induced changes in open field behaviour was studied according to the method described in Naunyn-Schmiedeberg's Arch. Pharmacol. 293: 109-114 (Vetulani et al., 1976). Reserpine (Sigma, USA) was dissolved in physiological saline and injected daily for 14 days at the dose of 0.1 mg/kg subcutaneously (SC). A period of 1 hour after the last injection of reserpine, animals were subjected to the open field test. This consisted of the measure of ambulation and rearing of the rat in a circular area divided into 17 equal sections and lighted by a centrally suspended lamp. The areas explored by the rat at least with anterior paws was recorded in 5 min test. The episodes of rearing towards the centre or the walls were also recorded in 5 min test.
All data were analysed using univariate random design analysis of variance (one-way ANOVA) and the post hoc Dunnett's test for multiple comparisons. A P-value of 0.05 or less was considered as indicative of a significant difference.

[5] = acute 0.2 mg/kg IP 1 h prior to open field test
[6] = acute 0.5 mg/kg IP 1 h prior to open field test
[7] = acute 0.5 mg/kg IP 1 h prior to open field test, listed as Example 1

## O=C1CCCC=C1C1COCCN1O (stereo not shown) [Ex. 1 (Abio 09/01), 2-(4-hydroxy-3-morpholinyl)-2-cyclohexenone]
BKW male albino mice
  Atot = Total exploratory activity: +10.4
  CB/TB = crossings in the white compartment/time in white: −0.05
  CN/TN = crossings in the black compartment/time in black: 0.08
  Ctot = total number of crossings: +7.5
  FI = Initial potency: +11.5
  PT = Total passages through the partition: +0.9
  RB/TB = rearings in the white compartment/time in white: +0.02
  RN/TN = rearings in the black compartment/time in black: +0.06
  Rtot = Total number of rearings: +5
BKW male albino mice; signed value
  TB = time in white section: +53.4
Rats [1]
  % time spent in open arms: 39 ± 10%
  No. of entries in open arms: 5.2 ± 1.4
Rats [2]
  No. of escapes: 23.3 ± 1.3
[3]; 0.2 mg/kg IP
  Duration of Immobility: 167.00 ± 11.11
[3]; 0.5 mg/kg IP, 0.5 mg/kg
  Duration of Immobility: 109.83 ± 9.12
[3]; 0.5 mg/kg IP, listed as Example 1, 0.5 mg/kg
  Duration of Immobility: significant decrease of immobility time
[4]; [5]
  No. of Floor Units (ambulation): 128.1 ± 11.9
  Rearing Episodes: 5.9 ± 0.3
[4]; [6]
  No. of Floor Units (ambulation): 92.2 ± 11.1
  Rearing Episodes: 2.2 ± 0.5
[4]; [7]
  No. of Floor Units (ambulation): decreased ambulation
  Rearing Episodes: decreased ambulation (number of floor units entered) and rearing
